Assay results: publication PMC11062922 (Nature Chemical Biology, 2023)

Key:
EGFR = target: T1, EGFR (Homo sapiens, UniProt P00533); assay: Kinobeads two-dose competition binding: EGFR; conditions: for CATDS: target EGFR
T1 construct: endogenous in cells

ACAD11 = target: T2, ACAD11 (Homo sapiens, UniProt Q709F0); assay: Kinobeads competition binding: ACAD11; conditions: target ACAD11
T2 construct: endogenous in cells
T2 sequence (Q709F0 1-780): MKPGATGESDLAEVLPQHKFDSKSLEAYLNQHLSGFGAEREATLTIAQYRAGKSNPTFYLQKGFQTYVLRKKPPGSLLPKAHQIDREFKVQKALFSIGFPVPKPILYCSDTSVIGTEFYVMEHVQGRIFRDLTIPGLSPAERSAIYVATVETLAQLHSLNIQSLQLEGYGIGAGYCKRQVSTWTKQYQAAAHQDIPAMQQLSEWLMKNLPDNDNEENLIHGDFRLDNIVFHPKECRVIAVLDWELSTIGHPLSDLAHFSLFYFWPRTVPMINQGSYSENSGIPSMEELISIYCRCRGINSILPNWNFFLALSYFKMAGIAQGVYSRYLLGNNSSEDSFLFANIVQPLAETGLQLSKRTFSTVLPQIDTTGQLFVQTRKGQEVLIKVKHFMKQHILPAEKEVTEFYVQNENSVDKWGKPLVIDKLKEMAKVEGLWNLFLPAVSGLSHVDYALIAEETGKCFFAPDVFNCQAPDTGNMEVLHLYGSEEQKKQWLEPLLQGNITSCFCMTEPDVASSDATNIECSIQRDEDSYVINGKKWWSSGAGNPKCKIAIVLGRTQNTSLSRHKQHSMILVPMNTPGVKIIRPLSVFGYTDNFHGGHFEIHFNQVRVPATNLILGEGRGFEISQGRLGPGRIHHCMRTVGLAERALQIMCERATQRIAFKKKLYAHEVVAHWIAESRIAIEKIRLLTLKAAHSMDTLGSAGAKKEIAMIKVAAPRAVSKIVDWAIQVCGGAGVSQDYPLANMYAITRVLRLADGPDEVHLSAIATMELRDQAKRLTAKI
Source text: Supplement 41589_2023_1459_MOESM4_ESM.xlsx, sheet "CATDS matrix" | column: ACAD11

BRAF = assay: Kinobeads competition binding: BRAF; design: species or system human; conditions: target BRAF
CDC42 = assay: Kinobeads competition binding: CDC42; design: species or system human; conditions: target CDC42
CDC42BPG = assay: Kinobeads competition binding: CDC42BPG; design: species or system human; conditions: target CDC42BPG
ILK = assay: Kinobeads competition binding: ILK; design: species or system human; conditions: target ILK
NUAK2 = target: T3, NUAK2 (Homo sapiens, UniProt Q9H093); assay: Kinobeads competition binding: NUAK2; conditions: target NUAK2
T3 construct: a mixture of lysates from five cancer cell lines; endogenous in cells
T3 sequence (Q9H093 1-628): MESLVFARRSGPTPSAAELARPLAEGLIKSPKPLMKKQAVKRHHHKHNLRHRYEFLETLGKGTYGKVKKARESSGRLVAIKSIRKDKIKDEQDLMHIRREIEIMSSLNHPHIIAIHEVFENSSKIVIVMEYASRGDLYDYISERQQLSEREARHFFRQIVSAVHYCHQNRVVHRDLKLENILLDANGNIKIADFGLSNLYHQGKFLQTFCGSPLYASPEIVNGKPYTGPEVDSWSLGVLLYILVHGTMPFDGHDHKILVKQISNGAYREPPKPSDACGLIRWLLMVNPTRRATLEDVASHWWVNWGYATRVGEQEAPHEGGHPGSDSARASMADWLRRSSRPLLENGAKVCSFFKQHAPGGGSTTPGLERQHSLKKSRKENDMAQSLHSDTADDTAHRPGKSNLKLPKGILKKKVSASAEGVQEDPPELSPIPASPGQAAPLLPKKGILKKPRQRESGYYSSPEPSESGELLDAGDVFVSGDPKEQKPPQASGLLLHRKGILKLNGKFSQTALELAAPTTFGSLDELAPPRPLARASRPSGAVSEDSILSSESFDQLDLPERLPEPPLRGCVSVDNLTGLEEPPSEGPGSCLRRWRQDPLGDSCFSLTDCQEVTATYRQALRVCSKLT
Source text: Supplement 41589_2023_1459_MOESM4_ESM.xlsx, sheet "CATDS matrix" | column: NUAK2

PGK1 = assay: Kinobeads competition binding: PGK1; design: species or system human; conditions: target PGK1

T1 sequence (P00533 25-1210): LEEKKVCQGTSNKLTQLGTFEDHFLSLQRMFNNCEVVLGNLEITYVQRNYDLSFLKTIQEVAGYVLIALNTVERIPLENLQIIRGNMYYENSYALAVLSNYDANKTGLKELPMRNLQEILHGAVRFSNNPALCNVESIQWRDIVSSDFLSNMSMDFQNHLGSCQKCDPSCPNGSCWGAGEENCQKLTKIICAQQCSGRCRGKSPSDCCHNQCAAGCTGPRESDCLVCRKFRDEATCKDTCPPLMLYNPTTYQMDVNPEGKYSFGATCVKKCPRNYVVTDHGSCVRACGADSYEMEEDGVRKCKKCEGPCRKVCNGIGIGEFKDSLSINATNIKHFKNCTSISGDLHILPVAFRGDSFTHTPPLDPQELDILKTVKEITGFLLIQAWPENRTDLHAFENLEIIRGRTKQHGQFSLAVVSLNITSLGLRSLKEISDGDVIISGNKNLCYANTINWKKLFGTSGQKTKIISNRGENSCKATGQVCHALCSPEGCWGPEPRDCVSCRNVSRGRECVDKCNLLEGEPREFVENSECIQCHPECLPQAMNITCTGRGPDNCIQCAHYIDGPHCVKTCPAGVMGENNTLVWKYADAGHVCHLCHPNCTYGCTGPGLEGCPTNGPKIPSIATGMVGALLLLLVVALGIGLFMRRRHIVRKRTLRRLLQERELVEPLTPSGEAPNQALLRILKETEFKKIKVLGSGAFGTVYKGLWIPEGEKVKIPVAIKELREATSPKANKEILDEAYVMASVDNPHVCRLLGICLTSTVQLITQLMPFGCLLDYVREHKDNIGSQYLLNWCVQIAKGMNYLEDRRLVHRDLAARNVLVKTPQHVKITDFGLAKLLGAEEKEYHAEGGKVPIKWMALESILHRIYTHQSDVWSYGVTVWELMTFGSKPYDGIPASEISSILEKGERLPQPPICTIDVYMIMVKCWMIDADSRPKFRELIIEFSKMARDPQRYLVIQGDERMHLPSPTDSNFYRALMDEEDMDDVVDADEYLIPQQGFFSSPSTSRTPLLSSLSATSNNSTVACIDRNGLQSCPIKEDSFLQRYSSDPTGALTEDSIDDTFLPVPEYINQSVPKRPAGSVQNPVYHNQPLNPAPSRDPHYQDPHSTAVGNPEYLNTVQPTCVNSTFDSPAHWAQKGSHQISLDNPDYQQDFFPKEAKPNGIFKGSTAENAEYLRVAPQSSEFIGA

| SMILES | CATDS (EGFR) | CATDS (ACAD11) | CATDS (BRAF) | CATDS (CDC42) | CATDS (CDC42BPG) | CATDS (ILK) | CATDS (NUAK2) | CATDS (PGK1) | potency estimated from few doses (EGFR; Kinobeads two-dose, Drugmatrix - all 2, read-out: apparent Kd EGFR) [nM] |
| --- | --- | --- | --- | --- | --- | --- | --- | --- | --- |
| Nc1ncnc2[nH]c(-c3ccccc3)nc12 [AH5015_KCGS] | 0 | 0 | 0 | 0 | 0 | 0 | 0 | 0 | – |
| CCc1cc2c(cc1N1CCC(N3CCOCC3)CC1)C(C)(C)c1[nH]c3cc(C#N)ccc3c1C2=O [Alectinib] | 0 | 0 | 0 | 0 | 0 | 0 | 0 | 0 | – |
| CCN1CCN(Cc2ccc(Nc3ncc(F)c(-c4cc(F)c5nc(C)n(C(C)C)c5c4)n3)nc2)CC1 [Abemaciclib] | 0 | 0 | 0 | 0 | 0 | 0 | 0 | 0 | – |
| CN(C)C/C=C/C(=O)Nc1cc2c(Nc3ccc(F)c(Cl)c3)ncnc2cc1O[C@H]1CCOC1 [Afatinib] | – | 0 | – | 0 | – | – | 0 | 0 | – |
| N#CC1(c2ccc(NC(=O)c3cccnc3NCc3ccncc3)cc2)CCCC1 [Apatinib] | 0 | 0 | 0 | 0 | 0 | 0 | 0 | 0 | – |
| C#Cc1cccc(Nc2ncnc3cc(OC)c(OC4CCN(C)CC4)cc23)c1 [BI00007366] | – | – | – | – | – | – | – | – | > 1000 |
